{"source": "patent US8710077B2", "about": "“Cycloalkylamine substituted isoquinoline and isoquinolinone derivatives” (Sanofi, priority 2006, dated 2014)", "data": [{"molecular_target": "T1, human recombinant ROCK II (Homo sapiens, UniProt O75116)", "T1 construct": "recombinant human ROCK-II residues 11-552; His6 (N); purchased Upstate Ltd., Dundee, UK", "T1 sequence (O75116 11-552)": "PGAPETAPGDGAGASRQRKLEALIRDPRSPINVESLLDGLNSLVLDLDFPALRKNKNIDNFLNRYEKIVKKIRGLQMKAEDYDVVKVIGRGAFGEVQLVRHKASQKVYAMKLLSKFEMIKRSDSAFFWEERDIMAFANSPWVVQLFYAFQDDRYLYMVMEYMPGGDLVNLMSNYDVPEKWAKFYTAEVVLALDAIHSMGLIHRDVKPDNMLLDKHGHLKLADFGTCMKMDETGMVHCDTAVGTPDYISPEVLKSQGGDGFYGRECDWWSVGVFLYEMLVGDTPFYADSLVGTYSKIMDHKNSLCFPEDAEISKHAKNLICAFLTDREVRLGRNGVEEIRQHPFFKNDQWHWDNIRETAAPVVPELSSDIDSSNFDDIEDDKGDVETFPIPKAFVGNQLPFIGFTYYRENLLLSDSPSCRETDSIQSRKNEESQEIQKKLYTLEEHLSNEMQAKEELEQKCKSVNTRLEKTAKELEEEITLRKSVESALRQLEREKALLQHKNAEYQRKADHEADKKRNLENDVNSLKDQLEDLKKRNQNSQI", "assay": "Determination of Rho Kinase Inhibition (Caliper peptide phosphorylation assay)", "assay_type": "biochemical", "conditions": "ROCK II residues 11-552, 60 min at 32° C., compound in the form (salt or free base) obtained in the examples", "experimental": "Determination of Rho Kinase Inhibition\nTo measure Rho-kinase inhibition, IC50 values were determined according to the following protocol:\nActive human recombinant ROCK II (N-terminal His6-tagged recombinant human ROCK-II residues 11-552) was purchased from Upstate Ltd., Dundee, UK. The peptide substrate, Fluorescein-AKRRRLSSLRA-COOH, was obtained from JPT Peptide Technologies, Berlin, Germany. Adenosine-5′-triphosphate (ATP), bovine serum albumine (BSA), dimethylsulphoxide (DMSO), 4-(2-Hydroxyethyl)piperazine-1-ethanesulfonic acid (Hepes), Brij-35 and dithiothreitol (DTT) were purchased from Sigma-Aldrich, Munich, Germany. Tris(hydroxymethyl)-aminomethane (Tris), magnesium chloride, NaOH, 1M HCl and EDTA were obtained from Merck Biosciences, Darmstadt, Germany. “Complete” protease inhibitor was from Roche Diagnostics, Mannheim, Germany.\nTest compounds were diluted to the appropriate concentrations in buffer 1 (25 mM Tris-HCl, pH 7.4, 5 mM MgCl2, 2 mM DTT, 0.02% (w/v) BSA and 3% DMSO). The ROCK II enzyme was diluted to a concentration of 100 ng/ml in buffer 2 (25 mM Tris-HCl, pH 7.4, 5 mM MgCl2, 2 mM DTT and 0.02% (w/v) BSA). The peptide substrate and ATP were diluted to concentrations of 3 μM and 120 μM, respectively, in the buffer 2. Two μl of the compound solution were mixed with 2 μl of the diluted enzyme in a 384-well small volume microtiter plate (Greiner, Bio-One, Frickenhausen, Germany), and the kinase reaction was initiated by addition of 2 μl of the solution containing peptide substrate and ATP. After 60 min incubation at 32° C., the reaction was stopped by addition of 20 μl of a solution containing 100 mM Hepes-NaOH, pH 7.4, 0.015% (v/v) Brij-35, 45 mM EDTA and 0.227% chip coating reagent 1 (Caliper Lifescience Inc, Hopkinton, Mass.). Phosphorylation of the substrate peptide was then detected on a Caliper 3000 instrument essentially as described by Pommereau et al (J. Biomol. Screening 9 (5), 409-416, 2004). Separation conditions were as follows: Pressure—1.3 psi, upstream voltage—1562 V, downstream voltage—500 V, sample sip time 200 ms. Positive controls (buffer 1 instead of compound) and negative controls (buffer 1 instead of compound and buffer 2 instead of ROCK II) were run in parallel on each plate.\nThe following products/compounds were tested in said assay by using the respective form (salt or free base) obtained as in the examples described above and the following activities were measured.", "units": {"IC50": "µM"}, "values": [{"smiles": "NC1(CC(O)CO)CCC(Oc2cc3cc[nH]c(=O)c3cc2Cl)CC1", "note": "(mixture of isomers) [Compound 57, 6-[4-amino-4-(2,3-dihydroxy-propyl)-cyclohexyloxy]-7-chloro-2H-isoquinolin-1-one]", "IC50": "≤ 1"}, {"smiles": "NCC1(c2ccc(Cl)c(Cl)c2)CCC(Oc2cc3cc[nH]c(=O)c3cc2Cl)CC1", "note": "(stereo not drawn) [Compound 116, 6-[4-Aminomethyl-4-(3,4-dichloro-phenyl)-cyclohexyloxy]-7-chloro-2H-isoquinolin-1-one]", "IC50": "≤ 1"}, {"smiles": "COc1ccc(C2(CN)CCC(Oc3cc4cc[nH]c(=O)c4cc3Cl)CC2)cc1OC", "note": "(stereo not drawn) [Compound 112, 6-[4-Aminomethyl-4-(3,4-dimethoxy-phenyl)-cyclohexyloxy]-7-chloro-2H-isoquinolin-1-one]", "IC50": "≤ 1"}, {"smiles": "Cc1cccc(C2(CN)CCC(Oc3cc4cc[nH]c(=O)c4cc3Cl)CC2)c1", "note": "(stereo not drawn) [Compound 111, 6-[4-Aminomethyl-4-(3-methyl-phenyl)-cyclohexyloxy]-7-chloro-2H-isoquinolin-1-one]", "IC50": "1 to 10"}, {"smiles": "NCC1(c2ccc(F)cc2)CCC(Oc2cc3cc[nH]c(=O)c3cc2Cl)CC1", "note": "(stereo not drawn) [Compound 113, 6-[4-Aminomethyl-4-(4-fluoro-phenyl)-cyclohexyloxy]-7-chloro-2H-isoquinolin-1-one]", "IC50": "≤ 1"}, {"smiles": "NCC1(c2ccccc2)CCC(Oc2cc3ccncc3cc2Cl)CC1", "note": "(stereo not drawn) [Compound 120, C-[4-(7-Chloro-isoquinolin-6-yloxy)-1-phenyl-cyclohexyl]-methylamine]", "IC50": "≤ 1"}, {"smiles": "COc1ccc(C2(CN)CCC(Oc3cc4cc[nH]c(=O)c4cc3Cl)CC2)cc1", "note": "(stereo not drawn) [Compound 114, 6-[4-Aminomethyl-4-(4-methoxy-phenyl)-cyclohexyloxy]-7-chloro-2H-isoquinolin-1-one]", "IC50": "≤ 1"}, {"smiles": "N[C@]1(C2CC2)CC[C@H](Oc2cc3cc[nH]c(=O)c3cc2Cl)CC1", "note": "[Compound 41, 6-(cis-4-Amino-4-cyclopropyl-cyclohexyloxy)-7-chloro-2H-isoquinolin-1-one]", "IC50": "≤ 1"}, {"smiles": "NCC1(c2ccc(Cl)cc2)CCC(Oc2cc3cc[nH]c(=O)c3cc2Cl)CC1", "note": "(stereo not drawn) [Compound 109, 6-[4-Aminomethyl-4-(4-chloro-phenyl)-cyclohexyloxy]-7-chloro-2H-isoquinolin-1-one]", "IC50": "≤ 1"}, {"smiles": "NCC1(c2ccccc2)CCC(Oc2cc3cc[nH]c(=O)c3cc2Cl)CC1", "note": "(stereo not drawn) [Compound 108, 6-(4-Aminomethyl-4-phenyl-cyclohexyloxy)-7-chloro-2H-isoquinolin-1-one]", "IC50": "≤ 1"}, {"smiles": "NCC1(c2cccc(Cl)c2)CCC(Oc2cc3cc[nH]c(=O)c3cc2Cl)CC1", "note": "(stereo not drawn) [Compound 110, 6-[4-Aminomethyl-4-(3-chloro-phenyl)-cyclohexyloxy]-7-chloro-2H-isoquinolin-1-one]", "IC50": "≤ 1"}, {"smiles": "C=CCC1(N)CCC(Oc2cc3cc[nH]c(=O)c3cc2Cl)CC1", "note": "(mixture of isomers) [Compound 20, 6-(4-Allyl-4-amino-cyclohexyloxy)-7-chloro-2H-isoquinolin-1-one]", "IC50": "≤ 1"}]}]}
